Assay results reported in PMC5187517, “Pectocin M1 (PcaM1) Inhibits Escherichia coli Cell Growth and Peptidoglycan Biosynthesis through Periplasmic Expression” (Antibiotics, 2016).

Target: T1, pectocin M1 (PcaM1) (Pectobacterium carotovorum, UniProt C6DJ69)
T1 construct: gene PC1_2303; full-length, C-terminal Arg-Ser-His6 tag kept, initiator Met lost; expressed in E. coli C43(DE3) from pMLD365; monomer; theoretical mass 30,401 Da with tag (observed m/z 30,266); plant-like ferredoxin domain plus cytotoxic domain
T1 sequence (C6DJ69 2-268): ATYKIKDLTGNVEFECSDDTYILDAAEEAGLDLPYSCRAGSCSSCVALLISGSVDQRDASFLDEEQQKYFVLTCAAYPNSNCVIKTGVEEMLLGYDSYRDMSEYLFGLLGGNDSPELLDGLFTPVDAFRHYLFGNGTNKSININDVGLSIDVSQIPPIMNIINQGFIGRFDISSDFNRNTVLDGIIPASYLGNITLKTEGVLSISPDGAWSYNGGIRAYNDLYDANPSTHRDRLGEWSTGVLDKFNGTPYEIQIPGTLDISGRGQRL
Test: radiolabelled lipid II hydrolysis, TLC with radioactivity scanner
Format: biochemical
Conditions: labelled compound ([14C] in GlcNAc moiety); 100 mM Tris-HCl pH 7.5, 20 mM MgCl2, 150 mM NaCl, 10 mM 2-mercaptoethanol, 0.2% DDM, 37 °C, lipid II 6–100 µM

`CC(=O)N[C@H]1[C@H](O[C@H]2[C@H](O[C@H](C)C(=O)N[C@@H](C)C(=O)N[C@H](CCC(=O)N[C@@H](CCC[C@@H](N)C(=O)O)C(=O)N[C@H](C)C(=O)N[C@H](C)C(=O)O)C(=O)O)[C@@H](NC(C)=O)[C@@H](OP(=O)(O)OP(=O)(O)OC/C=C(/C)CC/C=C(/C)CC/C=C(/C)CC/C=C(/C)CC/C=C(/C)CC/C=C(/C)CC/C=C(/C)CC/C=C(/C)CC/C=C(\C)CC/C=C(\C)CCC=C(C)C)O[C@@H]2CO)O[C@H](CO)[C@@H](O)[C@@H]1O` [lipid II, C55-PP-MurNAc(L-Ala-γ-D-Glu-meso-A2pm-D-Ala-D-Ala)-GlcNAc] gave a Km of 55 µM.
